Structures can show the parent of a compound that is named as a salt. ± gives the standard deviation of the averaged measurements.
Test system: Candida albicans SNY425 biofilm
Assay: biofilm OD600 relative to DMSO control (fraction of DMSO control); higher = more biofilm (less inhibition)
Experimental: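 C. albicans SNY425 biofilm optical density assays (OD600 of the adhered biofilm after media removal) in RPMI-MOPS pH 7.0 at 37 °C with shaking. Groups of 4 to 8 wells per compound are averaged and normalised to the average of DMSO loading control wells. Adherence inhibition was tested at 10 and 40 µM, sustained inhibition and disruption at 40 µM, and the MBIC series at 200 to 0.78 µM.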

[1] = 10 µM, assay detail: adherence inhibition, 96-well, compound during 90 min adherence only
[2] = 40 µM, assay detail: adherence inhibition, 96-well, compound during 90 min adherence only
[3] = 40 µM, assay detail: disruption, 384-well, compound added to 24 h mature biofilm for further 24 h
[4] = 40 µM, assay detail: sustained inhibition, 384-well, compound during adherence and 24 h growth
[5] = 0.78 µM, assay detail: sustained inhibition (MBIC series), 384-well, compound during adherence and 24 h growth
[6] = 3.125 µM, assay detail: sustained inhibition (MBIC series), 384-well, compound during adherence and 24 h growth
[7] = 12.5 µM, assay detail: sustained inhibition (MBIC series), 384-well, compound during adherence and 24 h growth
[8] = 50 µM, assay detail: sustained inhibition (MBIC series), 384-well, compound during adherence and 24 h growth
[9] = 200 µM, assay detail: sustained inhibition (MBIC series), 384-well, compound during adherence and 24 h growth

| Compound | biofilm OD600 [1] | biofilm OD600 [2] | biofilm OD600 [3] | biofilm OD600 [4] | biofilm OD600 [5] | biofilm OD600 [6] | biofilm OD600 [7] | biofilm OD600 [8] | biofilm OD600 [9] |
| --- | --- | --- | --- | --- | --- | --- | --- | --- | --- |
| O=C(O)c1cccnc1 [niacin] | 0.913 | 0.91 | 1.016 ± 0.002 | 0.967 ± 0.024 | – | – | – | – | – |
| Cc1c(NC(=O)c2cccnc2)c(=O)n(-c2ccccc2)n1C [nifenazone] | 0.927 | 0.919 | 1.004 ± 0.0086 | 0.968 ± 0.065 | – | – | – | – | – |
| COCCOC(=O)C1=C(C)NC(C)=C(C(=O)OC(C)C)C1c1cccc([N+](=O)[O-])c1 (centres undefined) [nimodipine] | 0.942 | 0.821 | 0.91 ± 0.029 | 0.984 ± 0.043 | 1.07 | 1.06 | 1.01 | 0.987 | 1.27 |
| COC(=O)C1=C(C)NC(C)=C(C(=O)OCC(C)C)C1c1ccccc1[N+](=O)[O-] (centres undefined) [nisoldipine] | 0.914 | 0.888 | 1.01 ± 0.051 | 0.65 ± 0.077 | 0.962 | 1.01 | 0.989 | 0.549 | 0.397 |
| O=C1CN(/N=C/c2ccc([N+](=O)[O-])o2)C(=O)N1 [nitrofurantoin] | 1.08 | 1.04 | 0.999 ± 0.035 | 0.999 ± 0.011 | – | – | – | – | – |
| Cc1cc2c(s1)Nc1ccccc1N=C2N1CCN(C)CC1 [olanzapine] | 0.943 | 0.921 | 0.999 ± 0.027 | 0.974 ± 0.04 | – | – | – | – | – |
| Fc1ccc([C@@H]2CCNC[C@H]2COc2ccc3c(c2)OCO3)cc1 [paroxetine hydrochloride] | 0.932 | 0.926 | 0.9497 ± 0.0011 | 0.509 ± 0.05 | 1.02 | 1.05 | 0.95 | 0.62 | 0.565 |
| NC(=O)NC(=O)Cc1ccccc1 [phenacemide] | 1.05 | 0.929 | 1.015 ± 0.0049 | 1.02 ± 0.065 | – | – | – | – | – |
| C=CC1=C(C)c2cc3[nH]c(cc4nc(cc5[nH]c(cc1n2)c(C)c5CCC(=O)O)C(CCC(=O)O)=C4C)c(C)c3C=C [protoporphyrin ix] | 1.04 | 0.941 | 1.21 ± 0.082 | 1.65 ± 0.22 | – | – | – | – | – |
| CCOC(=O)[C@H](CCc1ccccc1)N[C@@H](C)C(=O)N1Cc2ccccc2C[C@H]1C(=O)O [quinapril hydrochloride] | 1.07 | 0.946 | 1 ± 0.022 | 1.01 ± 0.033 | – | – | – | – | – |
| COCCCOc1ccnc(C[S+]([O-])c2nc3ccccc3[nH]2)c1C (centres undefined) [rabeprazole sodium] | 1.06 | 0.914 | 0.936 ± 0.049 | 1 ± 0.022 | 0.998 | 1.1 | 1.08 | 1.01 | 0.747 |
| CC(C)N1CCN(c2ccc(OCC3COC(Cn4cncn4)(c4ccc(Cl)cc4Cl)O3)cc2)CC1 (centres undefined) [terconazole] | 0.387 | 0.269 | 0.9787 ± 0.008 | 0.55 ± 0.032 | 0.77 | 0.76 | 0.728 | 0.568 | 0.403 |
| Clc1ccc(C(Cn2ccnc2)OCc2ccsc2Cl)c(Cl)c1 (centres undefined) [tioconazole] | 0.341 | 0.284 | 0.8317 ± 0.0059 | 0.473 ± 0.032 | 0.768 | 0.714 | 0.675 | 0.491 | 0.312 |
| C[C@]12C=CC(=O)C=C1CC[C@H]1[C@@H]3C[C@@H](O)[C@](O)(C(=O)CO)[C@@]3(C)C[C@H](O)[C@@]12F [triamcinolone] | 1 | 0.879 | 1.03 ± 0.034 | 1 ± 0.014 | – | – | – | – | – |
| CC(C)[C@H](N)C(=O)OCCOCn1cnc2c(=O)nc(N)[nH]c21 [valacyclovir hydrochloride] | 1.1 | 0.844 | 1 ± 0.024 | 0.982 ± 0.047 | – | – | – | – | – |
| Cc1ccc(-c2nc3ccc(C)cn3c2CC(=O)N(C)C)cc1 [zolpidem] | 0.924 | 0.858 | 1.005 ± 0.0066 | 0.981 ± 0.055 | – | – | – | – | – |

Reference: the supplement of paper PMC7285287
